Laboratory results as given in patent US20060148858A1, “1, 2-Azole derivatives with hypoglycemic and hypolipidemic activity” (priority 2002, published 2006).

Tests used:
PPARγ-RXRα heterodimer = biological target: T1, PPARγ-RXRα heterodimer (Homo sapiens, UniProt P37231); assay: PPARγ-RXRα heterodimer ligand activity, luciferase reporter in PPARγ:RXRα:4ERPP/CHO-K1 cells (Test Example 3); format: cell-based; details: 18-48 hours, concentration for 50% of the maximum fold induction
T1 construct: expressed in transfected cells; host or cells: CHO-K1
T1 sequence (P37231 1-477 isoform P37231-2): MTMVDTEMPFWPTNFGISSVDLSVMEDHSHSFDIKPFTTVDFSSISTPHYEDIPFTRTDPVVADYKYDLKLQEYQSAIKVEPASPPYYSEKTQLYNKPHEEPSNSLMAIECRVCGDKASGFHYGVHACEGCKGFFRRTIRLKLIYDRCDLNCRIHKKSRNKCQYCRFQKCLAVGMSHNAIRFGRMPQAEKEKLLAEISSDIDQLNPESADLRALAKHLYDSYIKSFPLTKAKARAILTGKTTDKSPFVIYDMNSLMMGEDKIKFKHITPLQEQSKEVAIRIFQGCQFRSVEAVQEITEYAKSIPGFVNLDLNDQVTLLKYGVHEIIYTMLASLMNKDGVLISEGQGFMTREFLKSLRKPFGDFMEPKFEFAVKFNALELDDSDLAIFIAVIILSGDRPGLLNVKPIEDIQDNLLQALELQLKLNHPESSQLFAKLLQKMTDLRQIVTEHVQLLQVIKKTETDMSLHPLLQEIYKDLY
T1 sequence (P19793 1-462 partner): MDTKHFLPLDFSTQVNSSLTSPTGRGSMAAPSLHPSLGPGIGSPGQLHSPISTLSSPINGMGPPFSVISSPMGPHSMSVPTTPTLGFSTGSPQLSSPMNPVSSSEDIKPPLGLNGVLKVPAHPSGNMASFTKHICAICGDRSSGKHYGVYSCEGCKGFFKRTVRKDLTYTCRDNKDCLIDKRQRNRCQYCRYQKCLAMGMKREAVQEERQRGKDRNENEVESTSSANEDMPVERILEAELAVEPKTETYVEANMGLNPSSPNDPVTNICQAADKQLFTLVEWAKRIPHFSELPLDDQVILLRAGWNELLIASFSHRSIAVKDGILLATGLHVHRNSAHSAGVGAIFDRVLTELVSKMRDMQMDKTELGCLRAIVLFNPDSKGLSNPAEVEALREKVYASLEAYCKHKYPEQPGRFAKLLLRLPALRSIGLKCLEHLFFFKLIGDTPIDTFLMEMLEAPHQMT
Description: A PPARγ: RXRα: 4ERPP/CHO-K1 cells obtained in Reference Example 8a described later were cultured in HAM F12 medium (produced by Life Technologies, Inc., USA) containing 10% Fetal bovine serum (produced by Life Technologies, Inc., USA) and then inoculated to a 96-well white plate (produced by Corning Costar Corporation, USA) at the density of 2×10^4 cells/well, and cultured in a CO2 gas incubator at 37° C. overnight.
After removing the medium from 96 well white plate, 80 μl of HAM F12 medium containing 0.1% fatty acid-free bovine serum albumin (BSA) and 20 μl of test compound were added, which was cultured in a CO2 gas incubator at 37° C. for 18-48 hours. After removing the medium, 40 μl of PIKKAGENE 7.5 (produced by Wako Pure Chemical Industries, Ltd.) diluted twice with HBSS (HANKS' BALANCED SALT SOLUTION)(produced by BIO WHITTAKER Inc., USA), was added. After stirring, the luciferase activity was determined using 1420 ARVO Multilabel Counter (produced by PerkinElmer Inc., USA).
(§1) A fold induction was calculated based on the luciferase activity of each test compound by taking the luciferase activity in the non-treatment group as 1. The values of the test compound concentration and the fold induction were analyzed using PRISM (produced by GraphPad Software Inc. USA) to calculate the EC50 values, the effective concentration of a test compound for 50% of the maximum fold induction.
After a CHO-K1 cell cultured in a 150 cm^2 cell culture flask (750 ml)(produced by Corning Costar Corporation, USA) containing HAM F12 medium (produced by Life Technologies, Inc., USA) supplemented with 10% Fetal Bovine Serum (produced by Life Technologies, Inc., USA) was scraped by treating with 0.5 g/L trypsin-0.2 g/L EDTA (ethylenediaminetetraacetic acid) (produced by Life Technologies, Inc., USA), the cell was washed with PBS (phosphate-buffered saline) (produced by Life Technologies, Inc., USA), centrifuged (1000 rpm, 5 minutes), and then suspended in PBS. Subsequently, a DNA was introduced into the cell under the condition shown below using GENE PULSER (produced by Bio-Rad Laboratories, USA).
Namely, to a cuvette having a 0.4 cm gap, added were 8×10^6 cells and 10 μg of plasmid pVgRXR2-hPPARγ obtained in Reference Example 7a and 10 μg of reporter plasmid pGL3-4ERPP-TK neo obtained in Reference Example 5a, which was subjected to electroporation at the voltage of 0.25 kV under the capacitance of 960 μF. Subsequently, the cell was transferred into a HAM F12 medium containing 10% Fetal Bovine Serum and cultured for 24 hours and then the cell was scraped again and centrifuged, and then suspended in HAM F12 medium containing 10% Fetal Bovine Serum supplemented with 500 μg/ml of GENETICIN (produced by Life Technologies, Inc., USA) and 250 μg/ml of ZEOCIN (produced by Invitrogen, USA). The obtained suspension was diluted to the density of 10^4 cells/ml and inoculated to a 96-well plate (produced by Corning Costar Corporation, USA), which was cultured in a CO2 gas incubator at 37° C., whereby obtaining a GENETICIN- and ZEOCIN-resistant transformant.
Subsequently, after the transformant cell line thus obtained was cultured in a 24-well plate (produced by Corning Costar Corporation, USA), selected was a cell line in which the luciferase was expressed and induced, i.e., PPARγ:RXRα:4ERPP/CHO-K1 cell by addition of 10 μM of pioglitazone hydrochloride.

PPARδ-RXRα heterodimer = biological target: T2, PPARδ-RXRα heterodimer (Homo sapiens, UniProt Q03181); assay: PPARδ-RXRα heterodimer ligand activity, luciferase reporter in COS-1 transformant (Test Example 4); format: cell-based; details: COS-1 transformant (hPPARδ, hRXRα, reporter), 36-48 hours, concentration for 50% of the maximum fold induction
T2 construct: expressed in transfected cells; host or cells: COS-1
T2 sequence (Q03181 1-441): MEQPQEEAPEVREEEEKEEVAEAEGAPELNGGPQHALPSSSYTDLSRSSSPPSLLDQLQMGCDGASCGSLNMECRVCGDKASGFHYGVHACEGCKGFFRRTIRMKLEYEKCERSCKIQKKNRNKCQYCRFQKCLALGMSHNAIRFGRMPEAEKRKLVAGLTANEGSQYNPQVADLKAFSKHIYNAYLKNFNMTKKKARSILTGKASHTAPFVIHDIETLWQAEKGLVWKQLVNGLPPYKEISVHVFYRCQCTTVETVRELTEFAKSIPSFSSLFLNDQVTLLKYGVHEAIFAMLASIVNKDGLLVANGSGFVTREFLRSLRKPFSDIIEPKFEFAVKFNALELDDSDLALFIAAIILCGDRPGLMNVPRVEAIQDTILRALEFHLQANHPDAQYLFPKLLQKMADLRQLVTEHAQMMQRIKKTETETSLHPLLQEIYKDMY
T2 sequence (P19793 1-462 partner): T1 sequence (P19793 1-462 partner)
Description: The transformant obtained in Reference Example 9a was suspended in DMEM medium (produced by Life Technologies, Inc., USA) containing 0.1% fatty acid-free bovine serum albumin (BSA) (produced by Wako Pure Chemical Industries, Ltd.), and inoculate to each well of a 96-well white plate (produced by Corning Costar Corporation, USA) by 80 μl at 1×10^4 cells/well. Then the test compound (20 μl) was added and cultured at 37° C. under 5% CO2 for 36-48 hours. After removing the medium from the 96-well white plate, 40 μl of PIKKAGENE LT 7.5 (produced by Wako Pure Chemical Industries, Ltd.) diluted twice with HBSS (HANKS' BALANCED SALT SOLUTION)(produced by BIO WHITTAKER Inc., USA), was added. After stirring, the luciferase activity was determined using 1420 ARVO Multilabel Counter (produced by PerkinElmer Inc., USA).
as §1
COS-1 cells were inoculated to a 150 cm^2 cell culture flask (produced by Corning Costar Corporation, USA) at the density of 5×10^6 cells/50 ml, and cultured at 37° C. under 5% CO2 conditions for 24 hours. Subsequently, a DNA was introduced into the cell under the condition shown below using Lipofectamine (produced by Invitrogen, USA).
First, Lipofectamine (125 μl), PLUS Reagent (100 μl, produced by Invitrogen, USA), plasmid pMCMVneo-hPPARδ (2.5 μg) obtained in Reference Example 3a, plasmid pMCMVneo-hRXRα (2.5 μg) obtained in Reference Example 4a and reporter plasmid pGL3-4ERPP-TK neo (5 μg) obtained in Reference Example 5a, and pRL-tk (5 μg, produced by Promega, USA) were mixed with opti-MEM (5 ml, produced by Invitrogen, USA) to give a transfection mixture.
Then, the above-mentioned transfection mixture and opti-MEM (20 ml) were added to COS-1 cells washed with opti-MEM, and the cells were cultured at 37° C. under 5% CO2 conditions for 3 hours. DMEM medium (25 ml, produced by Life Technologies, Inc., USA) containing 0.1% fatty acid-free bovine serum albumin (BSA) (produced by Wako Pure Chemical Industries, Ltd.) was added to the obtained COS-1 cells, and the cells were cultured at 37° C. under 5% CO2 conditions for 18-24 hours to give a transformant.

SMILES	EC50 (PPARγ-RXRα heterodimer) [nM]	melting point [°C]	EC50 (PPARδ-RXRα heterodimer) [nM]
CCCCc1nn(-c2ccc(C(F)(F)F)cn2)cc1CCCOc1ccccc1CC(=O)O [Example 198, [2-(3-{3-butyl-1-[5-(trifluoromethyl)-2-pyridyl]-1H-pyrazol-4-yl}propoxy)phenyl]acetic acid]	30	106 to 107	–
O=C(O)Cc1cccc(F)c1OCCCc1cn(-c2ccc(C(F)(F)F)cn2)nc1C1CCCCC1 [Example 210, [2-(3-{3-cyclohexyl-1-[5-(trifluoromethyl)-2-pyridyl]-1H-pyrazol-4-yl}propoxy)-3-fluorophenyl]acetic acid]	16	149 to 150	–
CCCc1nn(-c2ccc(C(F)(F)F)cn2)cc1CCCCn1cc(CCC(=O)O)c(-c2ccc(F)cc2)n1 [Example 77, 3-[3-(4-fluorophenyl)-1-(4-{3-propyl-1-[5-(trifluoromethyl)-2-pyridinyl]-1H-pyrazol-4-yl}butyl)-1H-pyrazol-4-yl]propanoic acid]	21	119 to 121	–
COc1cccc(CC(=O)O)c1OCCCc1cn(-c2ccc(C#N)cn2)nc1C(C)C [Example 271, (2-{3-[1-(5-cyano-2-pyridyl)-3-isopropyl-1H-pyrazol-4-yl]propoxy}-3-methoxyphenyl)acetic acid]	30	–	–
COc1cccc(CC(=O)O)c1OCCCc1cn(-c2ccc(C(F)(F)F)cn2)nc1C1CCCCC1 [Example 307, [2-(3-{3-cyclohexyl-1-[5-(trifluoromethyl)-2-pyridinyl]-1H-pyrazol-4-yl}propoxy)-3-methoxyphenyl]acetic acid]	23	140 to 141	–
COc1cc(CCC(=O)O)ccc1OCCCc1cn(-c2ccc(C(F)(F)F)cn2)nc1C [Example 129, 3-[3-methoxy-4-(3-{3-methyl-1-[5-(trifluoromethyl)-2-pyridyl]-1H-pyrazol-4-yl}propoxy)phenyl]propionic acid]	–	136 to 137	4.9
CCOc1nn(-c2ccc(C(F)(F)F)cn2)cc1CCCOc1cccc(CC(=O)O)c1F [Example 186, [3-(3-{3-ethoxy-1-[5-(trifluoromethyl)-2-pyridyl]-1H-pyrazol-4-yl}propoxy)-2-fluorophenyl]acetic acid]	–	120 to 121	1.9
COc1cc(CC(=O)O)ccc1OCCCc1cn(-c2ccc(C(F)(F)F)cn2)nc1C(C)C [Example 278, [3-methoxy-4-(3-{1-[5-(trifluoromethyl)-2-pyridyl]-3-isopropyl-1H-pyrazol-4-yl}propoxy)phenyl]acetic acid]	–	134 to 135	6
CCOc1nn(-c2ccc(C(F)(F)F)cn2)cc1CCOc1ccc(CCC(=O)O)c(OC)c1 [Example 75, 3-[4-(2-{3-ethoxy-1-[5-(trifluoromethyl)-2-pyridinyl]-1H-pyrazol-4-yl}ethoxy)-2-methoxyphenyl]propanoic acid]	–	147 to 148	3.8
CC(C)c1nn(-c2ccc(C(F)(F)F)cn2)cc1CCCCOc1cc(CCC(=O)O)n(-c2ccccc2)n1 [Example 49, 3-[3-(4-{3-isopropyl-1-[5-(trifluoromethyl)-2-pyridinyl]-1H-pyrazol-4-yl}butoxy)-1-phenyl-1H-pyrazol-5-yl]propanoic acid]	–	137 to 138	1.7
COc1cc(CCC(=O)O)ccc1OCCCc1cn(-c2ccc(C(F)(F)F)cn2)nc1C(C)C [Example 279, 3-[3-methoxy-4-(3-{1-[5-(trifluoromethyl)-2-pyridyl]-3-isopropyl-1H-pyrazol-4-yl}propoxy)phenyl]propanoic acid]	–	118 to 119	5.1
